Experimental findings from ChEMBL document CHEMBL4425125, “Development of a Dual-Acting Antibacterial Agent (TNP-2092) for the Treatment of Persistent Bacterial Infections” (J Med Chem, 2016) are described below.

In brackets after ≈: the same amount, converted by molar mass. Bounds are passed on as bounds.

What all share (type): functional
Test [1] deals with Staphylococcus aureus. Description: Bactericidal activity against methicillin-sensitive Staphylococcus aureus 29213 infected in mouse macrophages assessed as induction of bacterial kill at 4 ug/ml in presence of 4 ug/ml rifampin after 24 hrs.
Test [2] concerns Staphylococcus aureus. Description: Antimicrobial activity against methicillin-resistant Staphylococcus aureus 67-0.
Test [3] deals with Staphylococcus aureus. Description: Bactericidal activity against methicillin-resistant Staphylococcus aureus 67-0.

Consider `COc1c(N2C[C@@H]3CCCN[C@@H]3C2)c(F)cc2c(=O)c(C(=O)O)cn(C3CC3)c12` [MOXIFLOXACIN], for which the Activity entry in test [1] is “<=99.9%”.

For orientation: MIC means the lowest concentration that inhibits growth of the organism. Read a high MIC as a need for much substance. Broadly, the MBC is the lowest tested concentration that kills the bacteria rather than only halting them. The molecule `CN[C@H](CC(C)C)C(=O)N[C@H]1C(=O)N[C@@H](CC(N)=O)C(=O)N[C@H]2C(=O)N[C@H]3C(=O)N[C@H](C(=O)N[C@H](C(=O)O)c4cc(O)cc(O)c4-c4cc3ccc4O)[C@H](O)c3ccc(c(Cl)c3)Oc3cc2cc(c3O[C@@H]2O[C@H](CO)[C@@H](O)[C@H](O)[C@H]2O[C@H]2C[C@](C)(N)[C@H](O)[C@H](C)O2)Oc2ccc(cc2Cl)[C@H]1O` [VANCOMYCIN] had a minimal inhibitory concentration (MIC) in test [2] of 1 µg/mL (≈ 0.69 µM). In test [3], this molecule showed a minimum bactericidal concentration (MBC) of 1 µg/mL (≈ 0.69 µM).
